This is an account of results in patent US20140378469A1, “LKB1/STK11 DELETION IN MELANOMA AND RELATED METHODS” (The University of North Carolina at Chapel Hill, priority 2012, published 2014).

The assay relates to TKp53^L/Lp16^L/L melanoma cells. Briefly: in vitro scratch (wound healing) assay with dasatinib. Format: cell-based, murine. The settings on record: 30 nM dasatinib, 12 hours after wounding. How it is done:
FIG. 4C is a bar graph of closure index for TKp53^L/Lp16^L/L melanoma cells with LKB1 knockdown treated with vehicle (shLkb1+DMSO) or 30 nM dasatinib (shLkb1+Dasatinib) and for TKp53^L/Lp16^L/L melanoma cells without Lkb1 knockdown treated with vehicle (NS+DMSO) or 30 nM dasatinib (NS+Dasatinib). Closure index was measured 12 hours after wounding. The asterisks indicate a significant difference (P<0.05).
The in vitro scratch (wound healing) assay was performed as described previously. See Carretero et al., 2010. Briefly, a 1 mm wide scratch was made on a confluent monolayer, and cells were then allowed to grow under standard conditions for 12 hours. The migrated distance was quantified using Image J™ software. “Close Index” was determined as 1-f, where f is calculated as the remaining gap area divided by the starting scratched area. Cell invasion was measured using matrigel invasion assay using invasion chambers obtained from BD Biosciences (San Jose, Calif., United States of America), with assays performed according to the manufacturer's instructions. Cells of the indicated genotypes (2.5×10^4) were added to the upper chamber in 500 uL of serum-free medium, and the lower chamber was filled with 750 uL of medium containing 10% fetal bovine serum (FBS) as an attractant. After 24 hours of incubation, cells on the underside of the filter were fixed, stained and counted. […]

As for `Cc1nc(Nc2ncc(C(=O)Nc3c(C)cccc3Cl)s2)cc(N2CCN(CCO)CC2)n1` [dasatinib], the “decrease in cell migration (closure index)” value turned out to be 14% (Lkb-intact melanoma cells (NS)) and 27% (melanoma cells with Lkb1 knockdown (shLkb1)).
